The values below come from patent publication US7399777B2, “Diarylcycloalkyl derivatives, processes for their preparation and their use as pharmceuticals” (Sanofi-Aventis Deutschland GmbH, priority 2001, dated 2008).

This assay deals with T1, human PPARα (Homo sapiens, UniProt Q07869).
T1 construct: expressed in transfected cells; host or cells: HEK cells (human embryo kidney), stably transfected with pcDNA3-GR-GAL4-humanPPARα and the luciferase reporter pdeltaMG4LZ
T1 sequence (Q07869 167-468): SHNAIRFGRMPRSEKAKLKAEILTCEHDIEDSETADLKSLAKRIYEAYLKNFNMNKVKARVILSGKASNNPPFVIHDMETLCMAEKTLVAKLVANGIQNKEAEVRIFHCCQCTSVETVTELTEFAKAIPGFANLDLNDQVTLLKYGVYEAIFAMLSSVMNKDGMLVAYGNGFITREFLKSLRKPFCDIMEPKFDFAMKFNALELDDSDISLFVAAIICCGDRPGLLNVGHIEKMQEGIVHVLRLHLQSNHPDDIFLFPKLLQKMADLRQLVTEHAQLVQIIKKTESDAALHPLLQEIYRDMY
The experiment in a line: PPARα reporter cell line assay (stably transfected HEK cells, GR-GAL4-PPARα fusion protein, firefly luciferase reporter). It is filed as cell-based. To be noted: agonist activity in HEK PPARα reporter cell line; 24 h incubation; luciferase luminescence. From the text:
To analyze the effectiveness of substances which bind to human PPARα, activating it in agonistic manner, a stable transfected HEK cell line (HEK=human embryo kidney) designated here as “PPARα reporter cell line” is used. It contains two genetic elements, a firefly luciferase reporter element and a PPARα fusion protein (GR-GAL4-PPARα) which controls the expression of the firefly luciferase reporter element in a PPARα ligand dependent way.
The PPARα reporter cell line was established in two steps: First, the firefly luciferase reporter element was constructed and stably transfected into HEK cells. Five DNA binding sites for the yeast transcription factor GAL4 (five repetitions of the sequence 5′-CGGAGTACTGTCCTCCGAG-3′) (SEQ ID NO:1) were cloned 5′ upstream of a 68 bp minimal RNA polymerase II promoter from the GR mouse mammary tumor virus long terminal repeat (accession # V01175) providing a CCAAT-box as well as a TATA-element. Cloning and sequencing was done as described by Sambrook J. et. al. (Molecular cloning, Cold Spring Harbor Laboratory Press, 1989). The complete Photinus pyralis luciferase gene (accession # M 15077) was cloned 3′ downstream of the GAL4 binding sites and the MMTV minimal promoter. The firefly luciferase reporter element consisting of 5 GAL4 binding sites, the MMTV minimal promoter and the full length luciferase gene was recloned into a plasmid backbone harboring a Zeozin resistence gene leading to plasmid “pdeltaMG4LZ”. This vector was transfected in HEK cells as described by Ausubel, F. M. et al. (Current protocols in molecular biology, Vol. 1-3, John Wiley & Sons, Inc., 1995). Stable clones have been selected using Zeozin as a selection agent (0.5 mg/ml).
In a second step, the PPARα fusion protein (GR-GAL4-PPARα) that controls expression of the firefly luciferase reporter element, was stably integrated in this cell background. For this purpose the cDNAs coding for the N-terminal 76 amino acids of the human glucocorticoid receptor (“GR”, accession # P04150) have been linked to amino acids 1-147 of the yeast GAL4-protein (accession # P04386) followed by the ligand binding domain of humanPPARα (amino acids S167-Y468, accession # S74349). The GR-GAL4-human PPARα construct was cloned into plasmid pcDNA3 (Invitrogen) were its expression is driven constitutively by the Cytomegalovirus promoter. The plasmid pcDNA3-GR-GAL4-humanPPARα was transfected in a stable HEK-cell clone that already contained the firefly luciferase reporter element described above. A double-transfected cell line containing both, the firefly luciferase reporter element as well as the GR-GAL4-humanPPARα fusion protein, has been selected on medium supplemented with Zeozin (0.5 mg/ml) and G418 (0.5 mg/ml).
The activity of PPARα agonists is determined in a three day test, described below:
The PPARα reporter cell line is cultivated up to 80% confluence in DMEM medium (# 41965-039, Life Technologies) with the following additives: 10% cs-FCS (fetal calf serum, #SH-30068.03, Hyclone), antibiotics (0.5 mg/ml of zeozin [#R250-01, Invitrogen], 0.5 mg/ml of G418 [#10131-019, Life Technologies], 1% penicillin streptomycin solution [#15140-031, Life Technologies]) and 2 mM of L-glutamine (#25030-032, Life Technologies). Cultivation is carried out in standard cell culture bottles (# 33111, Becton Dickinson) in a cell culture incubator at 37° C. and 5% CO2. The 80% confluent cells are washed once with 30 ml of PBS (#14190-094, Life Technologies), treated with 2 ml of trypsin solution (#25300-054, Life Technologies) at 37° C. for 2 min, taken up in 5 ml of the medium described above and counted in a cell counter. After dilution to 500,000 cells/ml, in each case 35,000 cells are sown into each well of a 96-well microtiter plate having a clear plastic bottom (#3610, Coming Costar). The plates are incubated in a cell incubator at 37° C. and 5% CO2 for 24 h.
The PPARα agonists to be tested are dissolved in DMSO at a concentration of 10 mM. […]
(In general: In a reporter assay the amount or activity of a reporter protein is the signal.)
The EC50 is the concentration needed to bring the measured effect to its halfway point. Read a low EC50 as greater potency. `Cc1cccc(CO[C@@H]2CCC[C@H](OCc3nc(-c4cccc(F)c4)oc3C)C2)c1C(=O)O` [XLVIII, 2-{1R,3S-3-[2-(3-Fluoro-phenyl)-5-methyl-oxazol-4-ylmethoxyl]-cyclohexyloxymethyl}-6-methylbenzoic acid] had an EC50 of 0.25 nM.
In turn, `Cc1ccc(-c2nc(CO[C@H]3CCC[C@@H](OCc4cccc(C)c4C(=O)O)C3)c(C)o2)cc1` [LXII, 2-Methyl-6-[1R,3S-3-(5-methyl-2-p-tolyloxazol-4-ylmethoxy)cyclohexyloxymethyl]benzoic acid] yielded an EC50 of 0.08 nM.
As for `Cc1ccc(-c2nc(CO[C@@H]3CCC[C@H](OCc4cccc(C)c4C(=O)O)C3)c(C)o2)cc1` [LXIII, 2-Methyl-6-[1S,3R-3-(5-methyl-2-p-tolyloxazol-4-ylmethoxy)cyclohexyloxymethyl]benzoic acid], a half-maximal response (EC50) required 0.56 nM.
The result for `Cc1cccc(CO[C@@H]2CCC[C@H](OCc3nc(-c4ccccc4)oc3C)C2)c1C(=O)O` [Example LX, 2-Methyl-6-[1R,3S-3-(5-methyl-2-phenyloxazol-4-ylmethoxy)cyclohexyloxymethyl]benzoic acid] reads 0.2 nM; that for `Cc1cccc(CO[C@@H]2CCC[C@H](OCc3coc(-c4ccc(F)cc4)n3)C2)c1C(=O)O` (relative stereo) [Example II, (+)-cis-2-(3-(2-(4-Fluorophenyl)oxazol-4-ylmethoxy)cyclohexyloxymethyl)-6-methylbenzoic acid], 0.3 nM.
The result for `Cc1cccc(COC[C@@H]2CCC[C@H](OCc3coc(-c4ccc(F)cc4)n3)C2)c1C(=O)O` (racemic) [XXV, rac-cis-2-{3-[2-(4-Fluorophenyl)oxazol-4-ylmethoxy]cyclohexylmethoxymethyl}-6-methylbenzoic acid] reads 1.3 nM; that for `Cc1cccc(CO[C@@H]2CCC[C@H](OCc3nc(-c4cccc(C#N)c4)oc3C)C2)c1C(=O)O` [LIX, 2-{1R,3S-3-[2-(3-Cyanophenyl)-5-methyloxazol-4-ylmethoxy]cyclohexyloxymethyl}-6-methylbenzoic acid], 0.62 nM.
With `Cc1cccc(CC[C@@H]2CCC[C@H](OCc3coc(-c4ccc(F)cc4)n3)C2)c1C(=O)O` (racemic) [XXVIII, rac-cis-2-(2-{3-[2-(4-Fluorophenyl)oxazol-4-ylmethoxy]cyclohexyl}ethyl)-6-methylbenzoic acid], the half-maximal effective concentration (EC50) is 0.67 nM.
The same measure for `Cc1ccc(-c2nc(CO[C@@H]3CCC[C@H](OCc4cccc(C)c4C(=O)O)C3)co2)cc1` (stereo in doubt) [VII, cis-2-Methyl-6-[3-(2-p-tolyloxazol-4-ylmethoxy)cyclohexyloxymethyl]benzoic acid]: 4 nM.
As to `Cc1cccc(CC[C@H]2CCC[C@H](OCc3coc(-c4ccc(F)cc4)n3)C2)c1C(=O)O` (racemic) [XXIX, rac-trans-2-(2-{3-[2-(4-Fluorophenyl)oxazol-4-ylmethoxy]cyclohexyl}ethyl)-6-methylbenzoic acid], the concentration for a half-maximal effect (EC50) came out at 1.4 nM.
In turn, `Cc1cccc(CO[C@@H]2CCC[C@H](OCc3nc(-c4cccc(C(F)(F)F)c4)oc3C)C2)c1C(=O)O` [Example L, 2-{1R,3S-3-[2-(3-Trifluoromethylphenyl)-5-methyloxazol-4-ylmethoxy]cyclohexyloxymethyl}-6-methylbenzoic acid] showed an EC50 of 0.19 nM.
The same measure for `Cc1cccc(COC2C=CC(OCc3coc(-c4ccc(F)cc4)n3)C2)c1C(=O)O` (stereo not drawn) [XIX, 2-{4-[2-(4-Fluorophenyl)oxazol-4-ylmethoxy]cyclopent-2-enyloxymethyl}-6-methylbenzoic acid]: 16 nM.
